Source: the supplement of paper PMC10307832

Assays:
Experiment in all cases: relative viability (nuclei count vs DMSO), 5 days (fraction); higher = more cells survive
Wnt-C59 + Palbociclib = compound: CC1=NC=CC(=C1)C2=CC=C(C=C2)CC(=O)NC3=CC=C(C=C3)C4=CN=CC=C4 [Wnt-C59] + CC(=O)c1c(C)c2cnc(Nc3ccc(N4CCNCC4)cn3)nc2n(C2CCCC2)c1=O [Palbociclib] (partner 0.5 µM)
Summary of the method: (§1)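 Relative viability equals treated-well nuclei counts divided by vehicle-well nuclei counts. Counts came from 4× images of lung cancer cell lines grown in 1536-well plates for 5 days after pin-tool dosing on the day after seeding. Dosing used one drug alone or a fixed anchor-drug dose plus five library-drug doses (not always all listed) in √10 steps, and values are medians of duplicate plates.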

Wnt-C59 + Bortezomib = compound: CC1=NC=CC(=C1)C2=CC=C(C=C2)CC(=O)NC3=CC=C(C=C3)C4=CN=CC=C4 [Wnt-C59] + CC(C)C[C@H](NC(=O)[C@H](Cc1ccccc1)NC(=O)c1cnccn1)B(O)O [Bortezomib] (partner 0.002 µM)
Summary of the method: as §1

Wnt-C59 + Luminespib = compound: CC1=NC=CC(=C1)C2=CC=C(C=C2)CC(=O)NC3=CC=C(C=C3)C4=CN=CC=C4 [Wnt-C59] + CCNC(=O)c1noc(-c2cc(C(C)C)c(O)cc2O)c1-c1ccc(CN2CCOCC2)cc1 [Luminespib] (partner 0.01 µM)
Summary of the method: as §1

Wnt-C59 + Tozasertib = compound: CC1=NC=CC(=C1)C2=CC=C(C=C2)CC(=O)NC3=CC=C(C=C3)C4=CN=CC=C4 [Wnt-C59] + Cc1cc(Nc2cc(N3CCN(C)CC3)nc(Sc3ccc(NC(=O)C4CC4)cc3)n2)n[nH]1 [Tozasertib] (partner 0.1 µM)
Summary of the method: as §1

Wnt-C59 + Phenformin = compound: CC1=NC=CC(=C1)C2=CC=C(C=C2)CC(=O)NC3=CC=C(C=C3)C4=CN=CC=C4 [Wnt-C59] + N=C(N)NC(=N)NCCc1ccccc1 [Phenformin] (partner 250 µM)
Summary of the method: as §1

Row | Cell Line | relative viability (Wnt-C59 + Palbociclib; first compound 0.001 µM) | relative viability (Wnt-C59 + Palbociclib; first compound 0.01 µM) | relative viability (Wnt-C59 + Palbociclib; first compound 0.03162 µM) | relative viability (Wnt-C59 + Palbociclib; first compound 0.1 µM) | relative viability (Wnt-C59 + Bortezomib; first compound 0.001 µM) | relative viability (Wnt-C59 + Bortezomib; first compound 0.01 µM) | relative viability (Wnt-C59 + Bortezomib; first compound 0.03162 µM) | relative viability (Wnt-C59 + Bortezomib; first compound 0.1 µM) | relative viability (Wnt-C59 + Luminespib; first compound 0.001 µM) | relative viability (Wnt-C59 + Luminespib; first compound 0.01 µM) | relative viability (Wnt-C59 + Luminespib; first compound 0.03162 µM) | relative viability (Wnt-C59 + Luminespib; first compound 0.1 µM) | relative viability (Wnt-C59 + Tozasertib; first compound 0.001 µM) | relative viability (Wnt-C59 + Tozasertib; first compound 0.01 µM) | relative viability (Wnt-C59 + Tozasertib; first compound 0.03162 µM) | relative viability (Wnt-C59 + Tozasertib; first compound 0.1 µM) | relative viability (Wnt-C59 + Phenformin; first compound 0.001 µM) | relative viability (Wnt-C59 + Phenformin; first compound 0.01 µM) | relative viability (Wnt-C59 + Phenformin; first compound 0.03162 µM) | relative viability (Wnt-C59 + Phenformin; first compound 0.1 µM)
1 | NCI-H838 | 0.238 | 0.22 | 0.238 | 0.221 | 0.905 | 0.655 | 0.739 | 0.754 | 0.279 | 0.347 | 0.311 | 0.303 | 0.332 | 0.247 | 0.293 | 0.263 | 0.573 | 0.582 | 0.588 | 0.624
2 | NCI-H460 | 0.185 | 0.145 | 0.207 | 0.147 | 0.934 | 1.06 | 1.14 | 1.1 | 0.0357 | 0.0331 | 0.0466 | 0.0312 | 0.465 | 0.0488 | 0.555 | 0.48 | 0.488 | 0.524 | 0.519 | 0.484
3 | CAL-12T | 0.483 | 0.375 | 0.556 | 0.394 | 0.979 | – | 0.875 | 1.14 | 0.397 | 0.307 | 0.592 | 0.571 | 0.47 | 0.335 | 0.349 | 0.263 | 0.564 | 0.581 | 0.576 | 0.566
4 | NCI-H1650 | 0.341 | 0.321 | 0.318 | 0.378 | 0.21 | 0.219 | 0.205 | 0.219 | 0.223 | 0.197 | 0.203 | 0.214 | 0.423 | 0.477 | 0.499 | 0.423 | 0.449 | 0.483 | 0.454 | 0.391
5 | NCI-H650 | 0.276 | 0.344 | 0.302 | 0.323 | 0.85 | 1.08 | 0.72 | 0.888 | 0.752 | 0.751 | 0.865 | 0.718 | 0.734 | 0.748 | 0.802 | 0.729 | 0.441 | 0.457 | 0.483 | 0.5
6 | NCI-H2085 | 0.459 | 0.425 | 0.477 | 0.471 | 1.16 | 0.898 | 1.07 | 1.16 | 0.457 | 0.502 | 0.419 | 0.494 | 0.807 | 0.795 | 0.831 | 0.824 | 0.757 | 0.649 | 0.691 | 0.673
7 | NCI-H2126 | 0.378 | 0.36 | 0.35 | 0.36 | 1.12 | 1.09 | 1.11 | 1.11 | 0.83 | 1 | 0.991 | 0.892 | 0.882 | 0.876 | 0.874 | 0.82 | 0.542 | 0.507 | 0.53 | 0.541
8 | NCI-H1666 | 0.658 | 0.654 | 0.616 | 0.647 | 0.797 | 0.749 | 0.807 | 0.89 | 1.05 | 1.04 | 1.04 | 1.03 | 0.649 | 0.674 | 0.566 | 0.576 | 0.54 | 0.498 | 0.531 | 0.561
9 | NCI-H727 | 0.607 | 0.678 | 0.627 | 0.733 | 0.948 | 0.782 | 0.951 | 1.08 | 0.332 | – | 0.857 | 0.526 | 0.702 | 0.547 | 0.586 | 0.565 | 0.337 | – | 0.545 | 0.66
10 | LC-2-ad | 0.484 | 0.509 | 0.536 | 0.505 | 1.1 | 1.03 | 1.11 | 1.01 | 1.13 | 0.97 | 1.06 | 0.975 | 0.403 | 0.45 | 0.478 | 0.434 | 0.68 | 0.546 | 0.659 | 0.545
11 | HCC-827 | 0.499 | 0.524 | 0.492 | 0.511 | 1.05 | 1.14 | 0.97 | 1.05 | 0.7 | 0.693 | 0.645 | 0.698 | 0.45 | 0.427 | 0.374 | 0.443 | 0.431 | 0.413 | 0.452 | 0.391
12 | SK-LU-1 | 0.356 | 0.343 | 0.423 | 0.359 | 1.15 | 1.23 | 1.28 | 1.45 | 0.211 | 0.219 | 0.184 | 0.206 | 0.317 | 0.323 | 0.331 | 0.295 | 0.476 | 0.49 | 0.506 | 0.503
13 | EPLC-272H | 0.306 | 0.277 | 0.352 | 0.316 | 1 | 0.934 | 1.03 | 0.877 | 0.309 | 0.519 | 0.389 | 0.302 | 0.297 | 0.25 | 0.362 | 0.276 | 0.297 | 0.303 | 0.335 | 0.335
14 | NCI-H322M | 0.465 | 0.495 | 0.427 | 0.447 | 1.25 | 1.25 | 1.23 | 1.12 | 0.978 | 0.737 | 0.737 | 0.809 | 0.444 | 0.432 | 0.454 | 0.427 | 0.775 | 0.683 | 0.629 | 0.581
15 | NCI-H2228 | 1.06 | 0.633 | 0.884 | 0.869 | 1.07 | 0.746 | 1.07 | 0.855 | 0.173 | 0.149 | 0.223 | 0.197 | 0.31 | 0.322 | 0.264 | 0.23 | 0.325 | 0.385 | 0.294 | 0.415
16 | NCI-H1755 | 0.454 | 0.447 | 0.438 | 0.416 | 0.974 | 0.88 | 0.929 | 0.948 | 0.549 | 0.534 | 0.407 | 0.644 | 0.647 | 0.528 | 0.646 | 0.534 | 0.486 | 0.631 | 0.609 | 0.632
